Reference: publication PMC5218480 (PLoS ONE, 2017)

System: MV-4-11 cells
Test: Gene expression microarray analysis (Affymetrix PrimeView) and GSEA
Type: cell-based, human
Design: RFU PODN (11730768_x_at) / Fold change /veh PODN (11730768_x_at) / RFU LINC00158 (11744669_a_at) / Fold change /veh LINC00158 (11744669_a_at) / RFU DUSP10 (11751237_a_at) / Fold change /veh DUSP10 (11751237_a_at) / RFU ID3 (11757404_x_at) / Fold change /veh ID3 (11757404_x_at) / RFU PLEKHG5 (11737974_s_at) / Fold change /veh PLEKHG5 (11737974_s_at) / RFU LRRC4B (11730491_at) / Fold change /veh LRRC4B (11730491_at) / RFU GIMAP4 (11747438_a_at) / Fold change /veh GIMAP4 (11747438_a_at) / RFU KRT8 (11758183_x_at) / Fold change /veh KRT8 (11758183_x_at) / RFU CNN1 (11734310_a_at) / Fold change /veh CNN1 (11734310_a_at) / RFU VPS37D (11726825_at) / Fold change /veh VPS37D (11726825_at) / RFU C10orf10 (11716522_x_at) / Fold change /veh C10orf10 (11716522_x_at) / RFU KIR2DL2 /// KIR2DL4 /// KIR2DL5A /// KIR2DL5B /// KIR2DS1 /// KIR2DS2 /// KIR2DS3 /// KIR2DS4 /// KIR3DL3 /// KIR3DL3 /// KIR3DS1 (11738374_at) / Fold change /veh KIR2DL2 /// KIR2DL4 /// KIR2DL5A /// KIR2DL5B /// KIR2DS1 /// KIR2DS2 /// KIR2DS3 /// KIR2DS4 /// KIR3DL3 /// KIR3DL3 /// KIR3DS1 (11738374_at) / RFU C1QL1 (11718748_at) / Fold change /veh C1QL1 (11718748_at) / RFU TMPRSS4 (11747572_a_at) / Fold change /veh TMPRSS4 (11747572_a_at) / RFU HAMP (11756126_x_at) / Fold change /veh HAMP (11756126_x_at) / RFU RNFT2 (11725882_a_at) / Fold change /veh RNFT2 (11725882_a_at) / RFU NR4A2 (11747474_a_at) / Fold change /veh NR4A2 (11747474_a_at) / RFU ABCC12 (11746883_a_at) / Fold change /veh ABCC12 (11746883_a_at) / RFU TMEM136 (11760407_x_at) / Fold change /veh TMEM136 (11760407_x_at) / RFU CLDN22 /// WWC2 (11732394_at) / Fold change /veh CLDN22 /// WWC2 (11732394_at) / RFU HLA-DPB1 (11760878_x_at) / Fold change /veh HLA-DPB1 (11760878_x_at) / RFU SPINT1 (11716480_a_at) / Fold change /veh SPINT1 (11716480_a_at) / RFU GAP43 (11754022_s_at) / Fold change /veh GAP43 (11754022_s_at) / RFU A4GNT (11735810_at) / Fold change /veh A4GNT (11735810_at) / RFU PRB3 (11715151_x_at) / Fold change /veh PRB3 (11715151_x_at) / RFU TUBB4B (11761932_at) / Fold change /veh TUBB4B (11761932_at) / RFU CAPN14 (11732068_a_at) / Fold change /veh CAPN14 (11732068_a_at) / RFU TMCC2 (11721928_a_at) / Fold change /veh TMCC2 (11721928_a_at) / RFU IRGQ (11745062_a_at) / Fold change /veh IRGQ (11745062_a_at) / RFU FAM174B (11720279_a_at) / Fold change /veh FAM174B (11720279_a_at) / RFU TMPRSS4 (11748680_a_at) / Fold change /veh TMPRSS4 (11748680_a_at) / RFU FAM212B (11763350_a_at) / Fold change /veh FAM212B (11763350_a_at) / RFU PLEKHG5 (11743358_a_at) / Fold change /veh PLEKHG5 (11743358_a_at) / RFU ZSCAN30 (11745921_a_at) / Fold change /veh ZSCAN30 (11745921_a_at) / RFU CMKLR1 (11741424_a_at) / Fold change /veh CMKLR1 (11741424_a_at) / RFU LOC101060620 /// MAPK8IP1 (11723275_at) / Fold change /veh LOC101060620 /// MAPK8IP1 (11723275_at) / RFU SPTSSB (11747773_x_at) / Fold change /veh SPTSSB (11747773_x_at) / RFU PRSS12 (11739890_at) / Fold change /veh PRSS12 (11739890_at) / RFU BIN1 (11741810_x_at) / Fold change /veh BIN1 (11741810_x_at) / RFU WNT11 (11732464_a_at) / Fold change /veh WNT11 (11732464_a_at) / RFU C10orf10 (11716521_a_at) / Fold change /veh C10orf10 (11716521_a_at) / RFU C5orf56 (11738089_at) / Fold change /veh C5orf56 (11738089_at) / RFU CYB561 (11721691_x_at) / Fold change /veh CYB561 (11721691_x_at) / RFU ANKRD19P (11752326_a_at) / Fold change /veh ANKRD19P (11752326_a_at) / RFU OR2T12 /// OR2T33 /// OR2T8 (11738714_s_at) / Fold change /veh OR2T12 /// OR2T33 /// OR2T8 (11738714_s_at) / RFU VCAN (11748164_a_at) / Fold change /veh VCAN (11748164_a_at) / RFU JSRP1 (11732532_at) / Fold change /veh JSRP1 (11732532_at) / RFU KRTAP10-11 (11738290_x_at) / Fold change /veh KRTAP10-11 (11738290_x_at) / RFU MYO3A (11730013_a_at) / Fold change /veh MYO3A (11730013_a_at) / RFU EBF3 (11725865_a_at) / Fold change /veh EBF3 (11725865_a_at) / RFU CAMK2N1 (11719241_x_at) / Fold change /veh CAMK2N1 (11719241_x_at) / RFU C5orf56 (11738088_a_at) / Fold change /veh C5orf56 (11738088_a_at) / RFU OLFML3 (11715873_a_at) / Fold change /veh OLFML3 (11715873_a_at) / RFU LOC100653217 /// NTM (11731650_a_at) / Fold change /veh LOC100653217 /// NTM (11731650_a_at) / RFU MAPK11 (11762145_a_at) / Fold change /veh MAPK11 (11762145_a_at) / RFU FIZ1 (11724087_x_at) / Fold change /veh FIZ1 (11724087_x_at) / RFU OASL (11726364_x_at) / Fold change /veh OASL (11726364_x_at) / RFU SOX15 (11748057_x_at) / Fold change /veh SOX15 (11748057_x_at) / RFU CD79A (11719716_a_at) / Fold change /veh CD79A (11719716_a_at) / RFU HIST1H1D (11736915_at) / Fold change /veh HIST1H1D (11736915_at) / RFU CASKIN2 (11723855_a_at) / Fold change /veh CASKIN2 (11723855_a_at) / RFU LOC730098 (11760151_x_at) / Fold change /veh LOC730098 (11760151_x_at) / RFU OR4N2 (11742367_at) / Fold change /veh OR4N2 (11742367_at) / RFU PRRT2 (11749266_a_at) / Fold change /veh PRRT2 (11749266_a_at) / RFU SNX32 (11753110_a_at) / Fold change /veh SNX32 (11753110_a_at) / RFU CDHR5 (11726645_a_at) / Fold change /veh CDHR5 (11726645_a_at) / RFU RCAN1 (11760418_a_at) / Fold change /veh RCAN1 (11760418_a_at) / RFU FAM167A (11723789_a_at) / Fold change /veh FAM167A (11723789_a_at) / RFU FAM26E (11764081_at) / Fold change /veh FAM26E (11764081_at) / RFU ISYNA1 (11749810_s_at) / Fold change /veh ISYNA1 (11749810_s_at) / RFU ACY1 (11761880_at) / Fold change /veh ACY1 (11761880_at) / RFU 11764098_at / Fold change /veh 11764098_at / RFU SAMD14 (11745864_x_at) / Fold change /veh SAMD14 (11745864_x_at) / RFU NPB (11741838_a_at) / Fold change /veh NPB (11741838_a_at) / RFU TMPRSS6 (11731388_a_at) / Fold change /veh TMPRSS6 (11731388_a_at) / RFU KRTAP10-2 (11738614_at) / Fold change /veh KRTAP10-2 (11738614_at) / RFU ARHGAP8 /// PRR5-ARHGAP8 (11727945_x_at) / Fold change /veh ARHGAP8 /// PRR5-ARHGAP8 (11727945_x_at) / RFU KRTAP5-7 /// NADSYN1 (11734609_at) / Fold change /veh KRTAP5-7 /// NADSYN1 (11734609_at) / RFU RASL12 (11751679_a_at) / Fold change /veh RASL12 (11751679_a_at) / RFU CDKN2B (11736163_a_at) / Fold change /veh CDKN2B (11736163_a_at) / RFU PRF1 (11729649_at) / Fold change /veh PRF1 (11729649_at) / RFU, ZNF638 /// ZNF638-IT1 / Fold change vs veh, ZNF638 /// ZNF638-IT1 / RFU, PANK3 / Fold change vs veh, PANK3 / RFU, SH3YL1 / Fold change vs veh, SH3YL1 / RFU, ZEB2 / Fold change vs veh, ZEB2 / RFU, NRIP1 / Fold change vs veh, NRIP1 / RFU, PTTG1IP / Fold change vs veh, PTTG1IP / RFU, CAPN2 / Fold change vs veh, CAPN2 / RFU, MED14 / Fold change vs veh, MED14 / RFU, SNORA58 / Fold change vs veh, SNORA58 / RFU, C1orf63 / Fold change vs veh, C1orf63 / RFU, LRRFIP1 / Fold change vs veh, LRRFIP1 / RFU, NDUFAF7 / Fold change vs veh, NDUFAF7 / RFU, SLC12A2 / Fold change vs veh, SLC12A2 / RFU, IBTK / Fold change vs veh, IBTK / RFU, ESF1 / Fold change vs veh, ESF1 / Fold change vs veh, TMEM50B / RFU, TAOK1 / Fold change vs veh, TAOK1 / RFU, ACBD3 / Fold change vs veh, ACBD3 / RFU, TMA16 / Fold change vs veh, TMA16 / RFU, RWDD3 / Fold change vs veh, RWDD3 / RFU, BCAT1 / Fold change vs veh, BCAT1 / RFU, EDEM3 / Fold change vs veh, EDEM3 / RFU, TMEM33 / Fold change vs veh, TMEM33 / RFU, WDR75 / Fold change vs veh, WDR75 / RFU, AHCTF1 / Fold change vs veh, AHCTF1 / RFU, TFRC / Fold change vs veh, TFRC / RFU, ZDHHC17 / Fold change vs veh, ZDHHC17 / RFU, NOM1 / Fold change vs veh, NOM1 / RFU, ARL8B / Fold change vs veh, ARL8B / RFU, ZBTB11 / Fold change vs veh, ZBTB11 / RFU, TAMM41 / Fold change vs veh, TAMM41 / RFU, KIAA1704 /// LOC100996395 / Fold change vs veh, KIAA1704 /// LOC100996395 / RFU, ING1 / Fold change vs veh, ING1 / RFU, TRMT61B / Fold change vs veh, TRMT61B / RFU, FUBP3 / Fold change vs veh, FUBP3 / RFU, TP53 / Fold change vs veh, TP53 / RFU, TNKS2 / Fold change vs veh, TNKS2 / RFU, ZFP14 / Fold change vs veh, ZFP14 / RFU, ACTR2 / Fold change vs veh, ACTR2 / RFU, PPP3R1 / Fold change vs veh, PPP3R1 / RFU, PIK3R1 / Fold change vs veh, PIK3R1 / RFU, HNRNPA1 / Fold change vs veh, HNRNPA1 / RFU, RNF170 / Fold change vs veh, RNF170 / RFU, ZNF28 / Fold change vs veh, ZNF28 / RFU, RNGTT / Fold change vs veh, RNGTT / RFU, OGT / Fold change vs veh, OGT / RFU, BRD1 / Fold change vs veh, BRD1 / RFU, MARS / Fold change vs veh, MARS / RFU, ZNF655 / Fold change vs veh, ZNF655 / RFU, FAHD1 / Fold change vs veh, FAHD1 / RFU, BDP1 / Fold change vs veh, BDP1 / RFU, LRRCC1 / Fold change vs veh, LRRCC1 / RFU, ARID1A / Fold change vs veh, ARID1A / RFU, ZNF146 / Fold change vs veh, ZNF146 / RFU, ZNF330 / Fold change vs veh, ZNF330 / RFU, GPN3 / Fold change vs veh, GPN3 / RFU, C9orf123 / Fold change vs veh, C9orf123 / RFU, N4BP2L2 / Fold change vs veh, N4BP2L2 / RFU, ARFIP1 / Fold change vs veh, ARFIP1 / RFU, FAM179B / Fold change vs veh, FAM179B / RFU, BCL10 / Fold change vs veh, BCL10 / RFU, UHRF1BP1L / Fold change vs veh, UHRF1BP1L / RFU, BET1 / Fold change vs veh, BET1 / RFU, CNOT2 / Fold change vs veh, CNOT2 / RFU, ZNF268 / Fold change vs veh, ZNF268 / Fold change vs veh, ZNF507 / RFU, DGCR2 / Fold change vs veh, DGCR2 / RFU, WDSUB1 / Fold change vs veh, WDSUB1 / Fold change vs veh, HSP90B1 /// MIR3652 / RFU, ADSS / Fold change vs veh, ADSS / RFU, GK / Fold change vs veh, GK / RFU, ZNF148 / Fold change vs veh, ZNF148 / RFU, TAF9 / Fold change vs veh, TAF9 / RFU, SLC1A5 / Fold change vs veh, SLC1A5 / RFU, SLMO2 / Fold change vs veh, SLMO2 / RFU, ABCC4 / Fold change vs veh, ABCC4 / RFU, LOC101060439 /// RAP1B / Fold change vs veh, LOC101060439 /// RAP1B / RFU, RFX7 / Fold change vs veh, RFX7 / RFU, GTPBP10 / Fold change vs veh, GTPBP10 / RFU, CNEP1R1 / Fold change vs veh, CNEP1R1 / RFU, BIVM-ERCC5 /// ERCC5 / Fold change vs veh, BIVM-ERCC5 /// ERCC5 / RFU, ILF3 / Fold change vs veh, ILF3 / RFU 11762660_at / Fold change /veh 11762660_at / RFU VCAN (11757783_s_at) / Fold change /veh VCAN (11757783_s_at) / RFU DDX43 (11728927_at) / Fold change /veh DDX43 (11728927_at) / RFU KRT8 (11758188_x_at) / Fold change /veh KRT8 (11758188_x_at) / RFU NKD1 (11759106_at) / Fold change /veh NKD1 (11759106_at) / RFU SRD5A1 (11742802_a_at) / Fold change /veh SRD5A1 (11742802_a_at) / RFU TPSAB1 /// TPSB2 (11721975_s_at) / Fold change /veh TPSAB1 /// TPSB2 (11721975_s_at) / RFU GSTM3 (11746129_a_at) / Fold change /veh GSTM3 (11746129_a_at) / RFU IL23R (11737362_x_at) / Fold change /veh IL23R (11737362_x_at) / RFU TMEM51 (11727254_a_at) / Fold change /veh TMEM51 (11727254_a_at) / RFU PIWIL2 (11732686_x_at) / Fold change /veh PIWIL2 (11732686_x_at) / RFU ORM1 (11744905_x_at) / Fold change /veh ORM1 (11744905_x_at) / RFU CCDC152 (11743942_at) / Fold change /veh CCDC152 (11743942_at) / RFU ECM1 (11717891_a_at) / Fold change /veh ECM1 (11717891_a_at) / RFU IL23R (11748794_a_at) / Fold change /veh IL23R (11748794_a_at) / RFU TNFAIP8L3 (11732012_x_at) / Fold change /veh TNFAIP8L3 (11732012_x_at) / RFU MBOAT4 (11741988_at) / Fold change /veh MBOAT4 (11741988_at) / RFU 11764193_at / Fold change /veh 11764193_at / RFU TMEM53 (11763286_at) / Fold change /veh TMEM53 (11763286_at) / RFU MAGEB2 (11727129_at) / Fold change /veh MAGEB2 (11727129_at) / RFU TMEM200A (11744735_a_at) / Fold change /veh TMEM200A (11744735_a_at) / RFU CCDC152 (11751479_a_at) / Fold change /veh CCDC152 (11751479_a_at) / RFU FAM211A (11726209_a_at) / Fold change /veh FAM211A (11726209_a_at) / RFU RGS16 (11746705_a_at) / Fold change /veh RGS16 (11746705_a_at) / RFU VCAN (11755009_s_at) / Fold change /veh VCAN (11755009_s_at) / RFU RHOB (11743442_s_at) / Fold change /veh RHOB (11743442_s_at) / RFU RGS16 (11720943_a_at) / Fold change /veh RGS16 (11720943_a_at) / RFU RGS16 (11720944_at) / Fold change /veh RGS16 (11720944_at) / RFU, VPS4B / Fold change vs veh, VPS4B / RFU, CREB1 / Fold change vs veh, CREB1 / RFU, DNAJC13 / Fold change vs veh, DNAJC13 / RFU, GNAQ / Fold change vs veh, GNAQ / RFU, CDK5R1 / Fold change vs veh, CDK5R1 / RFU, ZRANB3 / Fold change vs veh, ZRANB3 / RFU, CUL4A / Fold change vs veh, CUL4A / RFU, CCNY / Fold change vs veh, CCNY / RFU, UFL1 / Fold change vs veh, UFL1 / RFU, COG3 / Fold change vs veh, COG3 / RFU, DIAPH2 / Fold change vs veh, DIAPH2 / RFU, SKA2 / Fold change vs veh, SKA2 / RFU, AFF3 / Fold change vs veh, AFF3 / RFU, LMF1 / Fold change vs veh, LMF1 / RFU, IPO11 / Fold change vs veh, IPO11 / RFU, DFFB / Fold change vs veh, DFFB / RFU, FOXP1 / Fold change vs veh, FOXP1 / RFU, CARD8 / Fold change vs veh, CARD8 / RFU, STRN3 / Fold change vs veh, STRN3 / RFU, ADK / Fold change vs veh, ADK / RFU, RASSF2 / Fold change vs veh, RASSF2 / RFU, WIPF1 / Fold change vs veh, WIPF1 / RFU, LARP1B / Fold change vs veh, LARP1B / RFU, RASA1 / Fold change vs veh, RASA1 / RFU, RB1 / Fold change vs veh, RB1 / RFU, PPFIA1 / Fold change vs veh, PPFIA1 / RFU, MAT2A / Fold change vs veh, MAT2A / RFU, CCT5 / Fold change vs veh, CCT5 / RFU, WDR92 / Fold change vs veh, WDR92 / RFU, CUX1 / Fold change vs veh, CUX1 / RFU, TTC7A / Fold change vs veh, TTC7A / RFU, TMEM135 / Fold change vs veh, TMEM135 / RFU, DEPTOR / Fold change vs veh, DEPTOR / RFU, CPM / Fold change vs veh, CPM / RFU, DNAJB6 / Fold change vs veh, DNAJB6 / RFU, CACNA2D3 / Fold change vs veh, CACNA2D3 / RFU, DTX4 / Fold change vs veh, DTX4 / RFU, TFCP2 / Fold change vs veh, TFCP2 / RFU, GMCL1 /// GMCL1P1 / Fold change vs veh, GMCL1 /// GMCL1P1 / RFU, AEBP2 / Fold change vs veh, AEBP2 / RFU, SNHG1 /// SNORD22 /// SNORD25 /// SNORD26 /// SNORD27 /// SNORD28 /// SNORD29 /// SNORD31 / Fold change vs veh, SNHG1 /// SNORD22 /// SNORD25 /// SNORD26 /// SNORD27 /// SNORD28 /// SNORD29 /// SNORD31 / Fold change (Aza/veh), C12orf56 (ProbeSet 11735607_a_at) / Fold change (ACY-1035/veh), C12orf56 (ProbeSet 11735607_a_at) / Fold change (Aza/veh), FGFR1OP (ProbeSet 11751329_s_at) / Fold change (ACY-1035/veh), FGFR1OP (ProbeSet 11751329_s_at) / Fold change (Aza/veh), VPS36 (ProbeSet 11739960_a_at) / Fold change (ACY-1035/veh), VPS36 (ProbeSet 11739960_a_at) / RFU SYPL1 (11715823_x_at) / Fold change /veh SYPL1 (11715823_x_at) / RFU IGFBP7 (11715501_s_at) / Fold change /veh IGFBP7 (11715501_s_at) / RFU REEP3 (11722064_at) / Fold change /veh REEP3 (11722064_at) / RFU IGLL1 (11728026_x_at) / Fold change /veh IGLL1 (11728026_x_at): dose or concentration left out as unconfirmed
Conditions: ProbeSet 11754362_a_at; LIST D

For `Nc1ncn([C@@H]2O[C@H](CO)[C@@H](O)[C@H]2O)c(=O)n1` [azacitidine], which “RFU, TTC7A” value is on record?
The value was 124.13 RFU.
